Data: PubChem BioAssay (NCI)
Where “and” joins values, the source holds several entries; their conditions need not be identical. Identical values can stand only once.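 All cell lines were grown in 96-well plates and treated with compound for 48 hours. At the GI50, growth is halved. TGI marks complete inhibition of growth.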

What was measured:
Assay in all cases: inhibition of tumour cell growth, NCI panel, 48 h
CCRF-CEM leukemia = tested on: CCRF-CEM leukemia
MDA-MB-435 = tested on: MDA-MB-435
DU-145 prostate = tested on: DU-145 prostate
UO-31 renal = tested on: UO-31 renal
MALME-3M melanoma = tested on: MALME-3M melanoma
786-0 renal = tested on: 786-0 renal
NCI-H23 lung = tested on: NCI-H23 lung
SNB-75 CNS = tested on: SNB-75 CNS
HCC-2998 colon = tested on: HCC-2998 colon
HL-60(TB) leukemia = tested on: HL-60(TB) leukemia

Compound	TGI (CCRF-CEM leukemia)	TGI (MDA-MB-435) [µM]	TGI (DU-145 prostate) [µM]	TGI (UO-31 renal) [µM]	TGI (MALME-3M melanoma)	TGI (786-0 renal)	TGI (NCI-H23 lung)	TGI (SNB-75 CNS)	TGI (HCC-2998 colon)	TGI (HL-60(TB) leukemia)	GI50 (SNB-75 CNS)	GI50 (MALME-3M melanoma)
COC(=O)c1ccc(-c2nc(C#N)c(N)o2)cc1	> 100 µM	> 100	> 100	> 100	> 100 µM	> 100 µM	> 100 µM	–	–	–	–	–
CCN(CC)CCO/N=C1\CC[C@H]2[C@@H]3CC=C4C[C@@H](O)CC[C@]4(C)[C@H]3CC[C@]12C	–	31.9	65.7	32.1	29.7 µM	31.5 µM	33.4 µM	91.1 µM	31.7 µM	44.5 µM	–	–
O=C(/C=C/c1ccc(-c2ccccc2[N+](=O)[O-])o1)NCc1ccc(C(=O)NCCc2ccccc2)cc1	–	> 100	> 100	> 100	> 100 µM	> 100 µM	> 100 µM	> 100 µM	> 100 µM	–	–	–
Cc1ccc(C(=O)N(C(C)C)C(C)C)cc1N=NN(C)C	–	> 100	> 100	> 100	> 100 µM	> 100 µM	> 100 µM	–	> 100 µM	> 100 µM	–	–
Cc1cc2ccccc2c[n+]1CC(O)C[n+]1cc2ccccc2cc1C	–	> 100	> 100	> 100	> 100 µM	> 100 µM	> 100 µM	> 100 µM	> 100 µM	–	–	–
O=C(O)C(CCc1ccccn1)c1ccccc1 (configuration not stated)	–	> 100	> 100	> 100	> 100 µM	> 100 µM	> 100 µM	> 100 µM	> 100 µM	> 100 µM	–	–
CN(CCc1ccc(Cl)c(Cl)c1)[C@H]1CCCC[C@H]1N1CCCC1	–	> 100	> 100	> 100	> 100 µM	> 100 µM	> 100 µM	–	> 100 µM	> 100 µM	–	–
COc1ccc(C2OC(=O)c3c2ccc2ccccc32)c(C)c1 (configuration not stated)	–	–	–	> 100	17.3 µM	18.1 µM	> 100 µM	30.6 µM	3.34 µM	5.38 µM	–	–
CN(C)CCOC(=O)COc1ccc(Cl)cc1	> 100 µM	> 100	> 100	> 100	> 100 µM	> 100 µM	> 100 µM	> 100 µM	> 100 µM	–	–	–
CN1CCn2c(Br)ccc2C1=O	> 100 µM	–	–	> 100	> 100 µM	> 100 µM	> 100 µM	–	> 100 µM	> 100 µM	–	–
Nc1nc(Cl)cc(N=Nc2ccccc2)n1	> 100 µM	> 100	> 100	> 100	> 100 µM	> 100 µM	55.5 µM	> 100 µM	–	75 µM	–	–
COC(=O)C(/C(=N/NC(=O)c1ccncc1)C(=O)Nc1ccccc1OC)c1nc2ccc(Cl)cc2[nH]c1=O (configuration not stated)	–	> 100	–	> 100	> 100 µM	> 100 µM	> 100 µM	> 100 µM	–	> 100 µM	–	–
c1ccc(CCN2CCCCCC2)nc1	> 100 µM	> 100	> 100	> 100	> 100 µM	> 100 µM	> 100 µM	–	–	–	–	–
CN=C(Nn1cnnc1)OC	> 100 µM	> 100	> 100	> 100	> 100 µM	> 100 µM	> 100 µM	–	> 100 µM	–	–	–
O=c1[nH]c(=O)n(C2OC(COP(=O)(O)OP(=O)(O)O)C(O)C2O)cc1F (configuration not stated)	> 50 µM	–	–	20.4	> 50 µM	7.09 µM	> 50 µM	> 50 µM	> 50 µM	> 50 µM	–	–
O=[N+]([O-])c1cccc([N+](=O)[O-])c1S(=O)(=O)c1ccccc1	–	14.6	20	3.5	6.19 µM	5.21 µM	50.7 µM	–	–	7.48 µM	–	–
CCC1(CC)C(=O)CC[C@@]2(C)C1=CC[C@H]1[C@@H]3CC[C@H](O)[C@@]3(C)CC[C@@H]12	45.7 µM	> 100	85.4	34.7	> 100 µM	29.6 µM	> 100 µM	> 100 µM	–	46.4 µM	–	–
COC(=O)c1sc(=S)sc1SCc1ccccc1CSc1sc(=S)sc1C(=O)OC	87.6 µM	> 100	> 100	> 100	> 100 µM	> 100 µM	> 100 µM	> 100 µM	> 100 µM	–	–	–
CCOC(=O)C(C)(C)Oc1ccc2c(=O)cc(-c3ccccc3)oc2c1	43.6 µM	–	–	> 100	37.6 µM	37.7 µM	34.9 µM	57.6 µM	> 100 µM	32.8 µM	–	–
COc1cccc(NC(=O)CSc2nnc(-c3ccc(N=Cc4ccc(Cl)cc4)cc3)o2)c1	> 100 µM	–	–	32.7	39.3 µM	57.5 µM	41.1 µM	66.3 µM	–	87.8 µM	–	–
Cn1c(=O)c2c(-c3ccccc3)onc2n(C)c1=O	77.9 µM	> 100	–	> 100	> 100 µM	86.5 µM	41.6 µM	> 100 µM	90.2 µM	–	–	–
CC[C@]12C=CCN3CCC4(c5cc(N=Nc6ccccc6)c(OC)cc5N(C)[C@H]4[C@@](O)(C(=O)OC)[C@@H]1OC(C)=O)[C@@H]32 (some centres not stated)	–	37.9	34.9	29.8	33.5 µM	32.4 µM	30.5 µM	–	36.3 µM	38.1 µM	–	–
Cc1cccc(C(C)(C)C)c1NC(=O)/C(Cc1nc2ccc([N+](=O)[O-])cc2[nH]c1=O)=N/NC(=O)C[N+](C)(C)C	–	> 100	> 100	> 100	> 100 µM	> 100 µM	> 100 µM	> 100 µM	> 100 µM	> 100 µM	–	–
COc1cc([C@@H]2c3cc4c(cc3[C@@H](NC(=O)c3ccc(N)cc3)C3COC(=O)[C@@H]32)OCO4)cc(OC)c1O (some centres not stated)	13.1 µM	–	–	31.1	19.8 µM	3.84 µM	4.97 µM	6.56 µM	17.2 µM	4.35 µM	–	–

Compound	TGI (CCRF-CEM leukemia)	TGI (MDA-MB-435) [µM]	TGI (DU-145 prostate) [µM]	TGI (UO-31 renal) [µM]	TGI (MALME-3M melanoma)	TGI (786-0 renal)	TGI (NCI-H23 lung)	TGI (SNB-75 CNS)	TGI (HCC-2998 colon)	TGI (HL-60(TB) leukemia)	GI50 (SNB-75 CNS)	GI50 (MALME-3M melanoma)
NC(Cc1cc(I)c(O)c(I)c1)C(=O)O (configuration not stated)	> 500 µM	–	–	> 500	> 500 µM	–	> 356 µM	> 330 µM	> 500 µM	> 500 µM	–	–
COc1cc2cc(C(=O)N3CC(CCl)c4c3cc(N)c3ccccc43)[nH]c2cc1OCCN(C)C (configuration not stated)	< 0.005 µM	< 0.005	0.0246	< 0.005	–	–	0.00833 µM	–	0.535 µM	–	–	–
COP(=O)(OC)C(N)CCSC (configuration not stated)	> 100 µM	> 100	–	> 100	> 100 µM	> 100 µM	> 100 µM	> 100 µM	–	> 100 µM	–	–
CCCn1c(C23CC4CC(CC(C4)C2)C3)nc2ccc(Cl)cc2c1=O	> 100 µM	> 100	95.9	39.5	> 100 µM	> 100 µM	> 100 µM	–	–	> 100 µM	–	–
CCOc1ccc2[nH]c3c(C)c4cc[n+](C)cc4c(C)c3c2c1	23.7 µM and 37.3 µM	–	–	> 100	3.18 µM and 4.52 µM	1.62 µM and 2.43 µM	3.38 µM and 3.31 µM	0.452 µM and 0.291 µM	10.6 µM and 16.2 µM	29.9 µM and > 52.2 µM	0.18 µM and 0.0795 µM	0.417 µM and 1.43 µM
CNC(=O)CCC(NC(C)=O)C(=O)NC(Cc1ccc(NC(=O)CCCCC(C)=O)cc1)C(=O)NC(CCC(=O)NC)C(=O)NC (configuration not stated)	–	> 100	> 100	> 100	> 100 µM	> 100 µM	> 100 µM	–	> 100 µM	> 100 µM	–	–
S=C(N/N=C\C=N/NC(=S)N1CCCCCC1)N1CCCCCC1	–	> 100	> 86.2	> 100	> 93.7 µM	> 100 µM	> 100 µM	> 100 µM	> 100 µM	–	–	–
C/C(O)=C(\C=N\C(N)=S)C(=O)Nc1ccccc1C	> 100 µM	> 100	> 100	> 100	–	> 100 µM	> 100 µM	> 100 µM	> 100 µM	–	–	–
COc1ccc(/C=C/c2cc(O)cc(OC)c2)cc1	–	> 100	> 100	> 100	> 100 µM	> 100 µM	> 100 µM	> 100 µM	–	> 100 µM	–	–
Cc1nc(C)c(C(=O)Nc2cccc3c2C(=O)NC3=O)cc1C(=O)Nc1cccc2c1C(=O)NC2=O	> 100 µM	–	–	> 100	> 100 µM	> 100 µM	> 100 µM	> 100 µM	> 100 µM	> 100 µM	–	–
COC(=O)[C@H](C)N1C(=O)N[C@@H](C(C)C)C1=O	> 100 µM	> 100	> 100	> 100	> 100 µM	> 100 µM	> 100 µM	> 100 µM	> 100 µM	–	–	–
CC(C)CCC[C@@H](C)[C@H]1CC[C@H]2[C@@H]3CC=C4C[C@@H](OC(=O)c5cccc6c(=O)c7ccccc7[nH]c56)CC[C@]4(C)[C@H]3CC[C@]12C	–	> 75	–	> 75	> 75 µM	> 75 µM	> 75 µM	> 75 µM	> 75 µM	–	–	–
CC1=CC(O)C(O)C2(C)C1CC1OC(=O)C(O)C3C(C)C(O)C4(O)OCC13C42 (configuration not stated)	96.9 µM	–	–	518	464 µM	–	250 µM	33.3 µM	126 µM	189 µM	–	–
COc1ccc(/C=C2\Cc3ccccc3C2=O)cc1OC	> 100 µM	–	–	> 100	> 100 µM	> 100 µM	> 100 µM	–	> 100 µM	–	–	–
O=S1(=O)NNC(=NCc2ccc(Cl)cc2)c2ccccc21	> 100 µM	–	–	> 100	> 100 µM	> 100 µM	–	–	> 100 µM	> 100 µM	–	–
CC(C)(C)N=C1CC(C)(C)c2ccccc2C(=Nc2ccccc2)S1	> 100 µM	–	–	> 100	96.5 µM	> 100 µM	98.6 µM	> 100 µM	> 100 µM	36 µM	–	–
CC1(C)COC(c2cccc(C3=NC(C)(C)CO3)c2Br)=N1	–	> 100	> 100	> 100	> 100 µM	> 100 µM	> 100 µM	> 100 µM	> 100 µM	> 100 µM	–	–
CCCCc1c2c(nc3c1CCc1cc4c(nc1-3)-c1nc3c(c(CCCC)c1CC4)CCC/C3=C\c1ccccc1)/C(=C/c1ccccc1)CCC2	> 100 µM	–	–	> 100	> 100 µM	> 100 µM	> 100 µM	–	> 100 µM	> 100 µM	–	–
CS(=O)(=O)OCCN1CCC2(CC1)SSC1(CCN(CCOS(C)(=O)=O)CC1)S2	–	> 100	–	> 100	68.1 µM	> 100 µM	> 100 µM	> 100 µM	–	59.7 µM	–	–
N#Cc1c(Nc2ccc(F)cc2)[n+]([O-])c2ccc(Cl)cc2[n+]1[O-]	> 100 µM	> 100	> 100	42.1	> 100 µM	27.5 µM	23.4 µM	74.6 µM	–	–	–	–
O=C(c1ccccc1)c1c(C(F)(F)F)n([O-])c2ccccc2[n+]1=O	> 100 µM	–	4.54	2.27	–	> 100 µM	3.71 µM	2.74 µM	–	1.42 µM	–	–
NC(N)=N/N=C/c1c(-c2ccc([N+](=O)[O-])cc2)nc2sccn12	–	2.87	3.21	6.13	–	3.07 µM	3.46 µM	3.27 µM	2.73 µM	5.8 µM	–	–
C#CCNC(Cc1cnc[nH]1)C(=O)O (configuration not stated)	> 100 µM	> 100	> 100	> 100	> 100 µM	> 100 µM	–	> 100 µM	–	> 100 µM	–	–
CC1(C)O[C@@H](CO)[C@H]([C@@]23OC[C@H]4OC(C)(C)OC4[C@@H]2OC(C)(C)O3)O1 (some centres not stated)	–	> 100	> 100	> 100	> 100 µM	> 100 µM	> 100 µM	> 100 µM	> 100 µM	> 100 µM	–	–
